For six compounds, EC50 results are on record in US12595262B2, “PRMT5 inhibitors” (MERCK SHARP & DOHME LLC, priority 2019, dated 2026).

For assay [1], the target named is T1, PRMT5-MEP50 enzyme complex (Homo sapiens, UniProt O14744).
T1 construct: 1.25 nM of Full-length (FL)-PRMT5-MEP50 enzyme complex; made in house; host or cells: baculovirus-transfected Sf21 cells
As to the kind of experiment: PRMT5-MEP50 Enzyme Methylation Assay. In kind it is biochemical. The settings on record: recombinant full-length PRMT5-MEP50 1.0 nM, 75 nM biotinylated H4R3(Me1) peptide, 15 μM SAM; 60 minutes pre-incubation, 150 minutes at 37° C. How it is done:
PRMT5-MEP50 Enzyme Methylation Assay
PRMT5-MEP50 biochemical assay is a direct measurement of the methylation activity of the enzyme complex on a short peptide substrate derived from the N-terminus of H4 histone. Methylation experiment was performed with recombinant PRMT5-MEP50 protein complex. The assessment of inhibitory effect of small molecules was measured by the effectiveness of the compounds to inhibit this reaction (EC50).
In this assay, the potency (EC50) of each compound was determined from a twenty-point (1:2 serial dilution; top compound concentration of 100000 nM) titration curve using the following outlined procedure. To each well of a white ProxiPlus 384 well-plate, 100 nL of compound (1% DMSO in final assay volume of 10 μL) was dispensed, followed by the addition of 8 μL of 1× assay buffer (50 mM Bicine pH 8.0, 1 mM DTT, 0.004% Tween20, 0.01% BSA) containing 1.25 nM of Full-length (FL)-PRMT5-MEP50 enzyme complex (recombinant proteins from baculovirus-transfected Sf21 cells: FL-PRMT5; MW=[…] and FL-MEP50; MW=38614) and 1 μL of 150 μM S-(5′-Adenosyl)-L-Methionine Chloride (SAM). Plates were sealed and placed in a 37° C. humidified chamber for a 60 minutes pre-incubation with compound. Subsequently, each reaction was initiated by the addition of 1 μL 1× assay buffer containing 750 nM biotinylated H4R3(Me1) peptide. The final reaction in each well of 10 μL consists of 1.0 nM PRMT5-MEP50, 75 nM biotinylated-peptide, and 15 μM SAM. Methylation reactions were allowed to proceed for 150 minutes in a sealed plate at 37° C. Reactions were immediately quenched by the addition of 1 μL of 5% formic acid. Plates were then frozen and shipped to SAMDITM Tech Inc. to determine the percent conversion from H4R3(Me1) to H4R3(Me2). Dose-response curves were generated by plotting percent effect (% product conversion; Y-axis) vs. Log10 compound concentrations (X-axis). EC50 values were determined by non-linear regression according to models for sigmoidal (4 parameters) dose-response curves.

The next assay deals with T2, PRMT5 (Homo sapiens, UniProt O14744).
T2 construct: endogenous in cells; host or cells: MCF-7
T2 sequence (O14744 whole entry): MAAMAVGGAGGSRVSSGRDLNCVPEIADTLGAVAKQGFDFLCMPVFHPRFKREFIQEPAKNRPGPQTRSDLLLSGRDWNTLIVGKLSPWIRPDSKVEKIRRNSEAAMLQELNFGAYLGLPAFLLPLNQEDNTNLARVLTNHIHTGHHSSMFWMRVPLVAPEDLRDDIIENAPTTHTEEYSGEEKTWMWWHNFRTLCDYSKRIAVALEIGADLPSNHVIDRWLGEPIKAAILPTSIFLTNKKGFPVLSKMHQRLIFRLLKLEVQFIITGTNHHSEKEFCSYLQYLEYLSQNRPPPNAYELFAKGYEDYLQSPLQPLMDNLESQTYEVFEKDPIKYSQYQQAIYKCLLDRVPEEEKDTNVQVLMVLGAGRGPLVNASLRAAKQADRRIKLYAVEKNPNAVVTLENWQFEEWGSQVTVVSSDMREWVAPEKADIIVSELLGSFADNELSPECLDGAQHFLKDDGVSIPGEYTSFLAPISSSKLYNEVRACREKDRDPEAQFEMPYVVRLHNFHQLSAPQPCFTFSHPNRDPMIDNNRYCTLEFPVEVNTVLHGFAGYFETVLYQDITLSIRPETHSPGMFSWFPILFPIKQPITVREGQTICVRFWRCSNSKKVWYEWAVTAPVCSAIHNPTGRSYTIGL
T2 sequence (Q9BQA1 whole entry partner): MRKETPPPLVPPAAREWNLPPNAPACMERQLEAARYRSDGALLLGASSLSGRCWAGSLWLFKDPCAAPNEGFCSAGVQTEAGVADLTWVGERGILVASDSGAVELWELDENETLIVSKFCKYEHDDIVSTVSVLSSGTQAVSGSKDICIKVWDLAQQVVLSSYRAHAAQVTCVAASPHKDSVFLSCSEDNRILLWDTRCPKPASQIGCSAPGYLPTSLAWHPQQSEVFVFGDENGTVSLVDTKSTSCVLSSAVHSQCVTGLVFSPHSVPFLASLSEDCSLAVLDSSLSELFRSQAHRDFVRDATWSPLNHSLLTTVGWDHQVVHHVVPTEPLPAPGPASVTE
As to the kind of experiment: PRMT5 Cell Target Engagement (TE) Assay. The settings on record: MCF-7 cells, treated for 3 days; symmetrically dimethylated (SDMA) nuclear proteins by high content imaging. In kind it is cell-based. An excerpt: PRMT5 Cell Target Engagement (TE) Assay
The PRMT5 TE assay is a biomarker assay for identifying compounds that inhibit symmetric dimethylation of arginine (SDMA) of PRMT5 substrates. The following substrates have been reported for PRMT5: histone H2A and H4 R3, Histone H3 R2, Histone H3 R8, spliceosome Sm proteins, ribosomal protein RPS10, p53, FEN1, nucleoplasmin, nucleolin, EGFR and EBNA. The assay focuses on detecting symmetrically dimethylated nuclear proteins using high content imaging technology. Detection of the expression of symmetrically dimethylated nuclear proteins is through a mixture of primary rabbit monoclonal antibodies to SDMA (CST 13222), which in turn recognized by an Alexafluor 488 dye-conjugated anti-rabbit IgG secondary antibody. The IN Cell Analyzer 2200 or Opera-Phenix measures nuclear Alexafluor 488 fluorescent dye intensity that is directly related to the level of expression of symmetrically dimethylated nuclear proteins at the single cell level. Nuclear AF488 dye intensities are compared to the mean value for DMSO treated cells (MIN) to report percent of inhibition for each compound-treated well.
In this assay, the cell potency (EC50) of each compound was determined from a ten point (1:3 serial dilution; top compound concentration of 10000 nM) titration curve using the following outlined procedure. Each well of a BD falcon collagen coated black/clear bottom 384-well plate was seeded with 4000 MCF-7 cells in 30 μl media and allowed to attach for 5 h. Media is ATCC-formulated Eagle's Minimum Essential Medium, Catalog No. 30-2003. To make the complete growth medium, the following components were added to the base medium: 0.01 mg/mL human recombinant insulin; fetal bovine serum to a final concentration of 10%. Additional 30 µl of media containing 2× compounds were added to each well. Cells were treated for 3 days in 37° C. CO2 incubator. On day 3, cells were fixed with Cytofix, permeabilized with 0.4% Triton-X-100/Cytofix, and washed with D-PBS without Ca/Mg. Cells were blocked with Licor Odessey blocking reagent for 1 h at room temperature, followed by incubation with anti-SDMA (1:1000) antibody at 4° C. overnight. 1° antibody was removed, followed by three washings with DPBS without Ca/Mg and 0.05% Tween20. Hoechst (5 μg/mL), Cell Mask deep stain (1:2000) and Alexa488-conjugated goat anti-rabbit IgG (2 μg/mL) was added for 1 h at room temperature. A final washing step (three washes) was performed before sealing plate for imaging on In Cell Analyzer 2200 or Opera-Phenix. Images from analyzer were uploaded to Columbus (at WP or BOS) for image analysis. IC50 values were determined by 4 parameters robust fit of percent fluorescence units vs. (Log10) compound concentrations.

SMILES strings stand for the structures.

T1 sequence (O14744 whole entry): as the sequence (O14744 whole entry) above
T1 sequence (Q9BQA1 whole entry partner): as the sequence (Q9BQA1 whole entry partner) above

As usually defined, the EC50 is the concentration needed to bring the measured effect to its halfway point. As for `O=C(c1cn2cc(C3CC3(F)F)cnc2n1)N1CC[C@H](N2CCc3ccccc3C2)[C@@H](O)C1` (stereo partly drawn) [Example 2, (6-(2,2-difluorocyclopropyl)imidazo[1,2-a]pyrimidin-2-yl)((3S,4S)-4-(3,4-dihydroisoquinolin-2(1H)-yl)-3-hydroxypiperidin-1-yl)methanone], the values for the EC50 (in assay [1]; on PRMT5) were 1.6 nM and 4.7 nM, respectively.
Regarding `[2H]C1([2H])c2ccccc2CCN1[C@@H]1CCN(C(=O)c2cc(NC3CCN(C(C)=O)CC3)ncc2F)C[C@H]1O` [Example 1c, 1-(4-((4-((3R,4R)-4-(3,4-dihydroisoquinolin-2(1H)-yl-1,1-d2)-3-hydroxypiperidine-1-carbonyl)-5-fluoropyridin-2-yl)amino)piperidin-1-yl)ethan-1-one], at PRMT5, the EC50 is 165 nM.
With `CCc1nc2nc(C(=O)N3CC[C@H](N4CCc5ccccc5C4)[C@@H](O)C3)cn2cc1Br` [Example 4, (6-bromo-7-ethylimidazo[1,2-a]pyrimidin-2-yl)((3S,4S)-4-(3,4-dihydroisoquinolin-2(1H)-yl)-3-hydroxypiperidin-1-yl)methanone], the 50% effective concentration (EC50) in assay [1] is 1.5 nM; at PRMT5 it was 15 nM.
For `O=C(c1cn2cc(C3CC3)cnc2n1)N1CC[C@H](N2CCc3ccccc3C2)[C@@H](O)C1` [Example 3, (6-cyclopropylimidazo[1,2-a]pyrimidin-2-yl)((3S,4S)-4-(3,4-dihydroisoquinolin-2(1H)-yl)-3-hydroxypiperidin-1-yl)methanone], the EC50 in assay [1] was found to be 1.3 nM; at PRMT5, 6.8 nM.
In the same order, the values of `CC(=O)N1CCC(Nc2cc(C(=O)N3CC[C@H](N4CCc5ccccc5C4)[C@@H](O)C3)c(F)cn2)CC1` [Example 1, 1-{4-[(4-{[(3S,4S)-4-(3,4-dihydroisoquinolin-2(1H)-yl)-3-hydroxypiperidin-1-yl]carbonyl}-5-fluoropyridin-2-yl)amino]piperidin-1-yl}ethanone] are 0.9 nM and 6.9 nM.
On to `[2H]C1([2H])c2ccccc2CCN1[C@H]1CCN(C(=O)c2cc(NC3CCN(C(C)=O)CC3)ncc2F)C[C@@H]1O` [Example 1b, 1-(4-((4-((3S,4S)-4-(3,4-dihydroisoquinolin-2(1H)-yl-1,1-d2)-3-hydroxypiperidine-1-carbonyl)-5-fluoropyridin-2-yl)amino)piperidin-1-yl)ethan-1-one], for which the values for the 50% effective concentration (EC50) (in assay [1]; at PRMT5) were 0.9 nM and 2 nM, respectively.
